Reference: the NIST ThermoML archive (doi:10.1016/j.fluid.2008.03.004)
Numbers after ± are expanded uncertainties.

Assay: xn = mol fraction of the nth substance listed
Settings: 101 kPa, Liquid; for speed of sound: Sing-around technique in a fixed-path interferometer

Cc1ccccc1C [1,2-dimethylbenzene] + COC(C)(C)C
Settings	mass density [kg/m3]	speed of sound [m/s]
305.65 K, x2 = 0	868.65 ± 0.37	–
305.65 K, x2 = 0.052	861.853 ± 0.4	–
305.65 K, x2 = 0.101	855.807 ± 0.41	–
305.65 K, x2 = 0.203	842.365 ± 0.43	–
305.65 K, x2 = 0.303	829.01 ± 0.45	–
305.65 K, x2 = 0.401	815.857 ± 0.47	–
305.65 K, x2 = 0.499	801.959 ± 0.49	–
305.65 K, x2 = 0.604	786.901 ± 0.51	–
305.65 K, x2 = 0.707	771.779 ± 0.53	–
305.65 K, x2 = 0.8	757.862 ± 0.55	–
305.65 K, x2 = 0.9	742.391 ± 0.58	–
305.65 K, x2 = 0.95	734.452 ± 0.59	–
308.15 K, x2 = 0	866.538 ± 0.37	1300.7 ± 2.2
308.15 K, x2 = 0.052	859.718 ± 0.4	1293.5 ± 2.2
308.15 K, x2 = 0.101	853.654 ± 0.41	1278.9 ± 2.2
308.15 K, x2 = 0.203	840.166 ± 0.43	1249.1 ± 2.2
308.15 K, x2 = 0.303	826.764 ± 0.45	1218.2 ± 2.2
308.15 K, x2 = 0.401	813.564 ± 0.47	1188.5 ± 2.2
308.15 K, x2 = 0.499	799.615 ± 0.49	1157 ± 2.2
308.15 K, x2 = 0.604	784.495 ± 0.51	1124.5 ± 2.2
308.15 K, x2 = 0.707	769.312 ± 0.54	1089.9 ± 2.2
308.15 K, x2 = 0.8	755.336 ± 0.56	1058 ± 2.2
308.15 K, x2 = 0.9	739.788 ± 0.58	1026.9 ± 2.2
308.15 K, x2 = 0.95	731.817 ± 0.59	1007.3 ± 2.2
310.65 K, x2 = 0	864.422 ± 0.38	1290.6 ± 2.2
310.65 K, x2 = 0.052	857.577 ± 0.41	1283.5 ± 2.2
310.65 K, x2 = 0.101	851.495 ± 0.41	1268.9 ± 2.2
310.65 K, x2 = 0.203	837.963 ± 0.43	1238.9 ± 2.2
310.65 K, x2 = 0.303	824.515 ± 0.45	1207.9 ± 2.2
310.65 K, x2 = 0.401	811.267 ± 0.47	1178 ± 2.2
310.65 K, x2 = 0.499	797.264 ± 0.5	1146.5 ± 2.2
310.65 K, x2 = 0.604	782.083 ± 0.52	1113.6 ± 2.2
310.65 K, x2 = 0.707	766.837 ± 0.54	1078.8 ± 2.2
310.65 K, x2 = 0.8	752.799 ± 0.56	1046.9 ± 2.2
310.65 K, x2 = 0.9	737.174 ± 0.58	1015.4 ± 2.2
310.65 K, x2 = 0.95	729.169 ± 0.6	996.05 ± 2.2
313.15 K, x2 = 0	862.302 ± 0.38	1280.6 ± 2.2
313.15 K, x2 = 0.052	855.433 ± 0.41	1273.4 ± 2.2
313.15 K, x2 = 0.101	849.333 ± 0.42	1258.9 ± 2.2
313.15 K, x2 = 0.203	835.755 ± 0.44	1228.7 ± 2.2
313.15 K, x2 = 0.303	822.257 ± 0.46	1197.6 ± 2.2
313.15 K, x2 = 0.401	808.961 ± 0.48	1167.5 ± 2.2
313.15 K, x2 = 0.499	794.906 ± 0.5	1135.9 ± 2.2
313.15 K, x2 = 0.604	779.664 ± 0.52	1102.8 ± 2.2
313.15 K, x2 = 0.707	764.349 ± 0.54	1067.7 ± 2.2
313.15 K, x2 = 0.8	750.25 ± 0.57	1035.9 ± 2.2
313.15 K, x2 = 0.9	734.547 ± 0.59	1003.8 ± 2.2
313.15 K, x2 = 0.95	726.508 ± 0.6	984.72 ± 2.2
315.65 K, x2 = 0	860.179 ± 0.38	1270.5 ± 2.2
315.65 K, x2 = 0.052	853.286 ± 0.41	1263.4 ± 2.2
315.65 K, x2 = 0.101	847.168 ± 0.42	1248.9 ± 2.2
315.65 K, x2 = 0.203	833.542 ± 0.44	1218.5 ± 2.2
315.65 K, x2 = 0.303	819.996 ± 0.46	1187.3 ± 2.2
315.65 K, x2 = 0.401	806.651 ± 0.48	1157.1 ± 2.2
315.65 K, x2 = 0.499	792.544 ± 0.5	1125.3 ± 2.2
315.65 K, x2 = 0.604	777.236 ± 0.53	1092 ± 2.2
315.65 K, x2 = 0.707	761.858 ± 0.55	1056.8 ± 2.2
315.65 K, x2 = 0.8	747.693 ± 0.57	1024.9 ± 2.2
315.65 K, x2 = 0.9	731.912 ± 0.59	992.02 ± 2.2
315.65 K, x2 = 0.95	723.834 ± 0.61	973.42 ± 2.2
318.15 K, x2 = 0	858.054 ± 0.38	1260.6 ± 2.2
318.15 K, x2 = 0.052	851.136 ± 0.41	1253.5 ± 2.2
318.15 K, x2 = 0.101	845 ± 0.42	1239 ± 2.2
318.15 K, x2 = 0.203	831.325 ± 0.45	1208.4 ± 2.2
318.15 K, x2 = 0.303	817.731 ± 0.46	1177.1 ± 2.2
318.15 K, x2 = 0.401	804.337 ± 0.48	1146.7 ± 2.2
318.15 K, x2 = 0.499	790.173 ± 0.51	1114.9 ± 2.2
318.15 K, x2 = 0.604	774.802 ± 0.53	1081.2 ± 2.2
318.15 K, x2 = 0.707	759.355 ± 0.55	1045.8 ± 2.2
318.15 K, x2 = 0.8	745.123 ± 0.57	1014 ± 2.2
318.15 K, x2 = 0.9	729.271 ± 0.6	980.41 ± 2.2
318.15 K, x2 = 0.95	721.145 ± 0.61	962.22 ± 2.2
320.65 K, x2 = 0	855.927 ± 0.39	1250.7 ± 2.2
320.65 K, x2 = 0.052	848.981 ± 0.42	1243.6 ± 2.2
320.65 K, x2 = 0.101	842.834 ± 0.43	1229.1 ± 2.2
320.65 K, x2 = 0.203	829.108 ± 0.45	1198.3 ± 2.2
320.65 K, x2 = 0.303	815.461 ± 0.47	1166.9 ± 2.2
320.65 K, x2 = 0.401	802.016 ± 0.49	1136.4 ± 2.2
320.65 K, x2 = 0.499	787.797 ± 0.51	1104.4 ± 2.2
320.65 K, x2 = 0.604	772.358 ± 0.53	1070.5 ± 2.2
320.65 K, x2 = 0.707	756.834 ± 0.56	1034.8 ± 2.2
320.65 K, x2 = 0.8	742.544 ± 0.58	1003.2 ± 2.2
320.65 K, x2 = 0.9	726.621 ± 0.6	968.31 ± 2.2
320.65 K, x2 = 0.95	718.446 ± 0.61	951.04 ± 2.2
323.15 K, x2 = 0	853.803 ± 0.39	1240.9 ± 2.2
323.15 K, x2 = 0.052	846.833 ± 0.42	1233.9 ± 2.2
323.15 K, x2 = 0.101	840.678 ± 0.43	1219.5 ± 2.2
323.15 K, x2 = 0.203	826.892 ± 0.45	1188.3 ± 2.2
323.15 K, x2 = 0.303	813.194 ± 0.47	1156.9 ± 2.2
323.15 K, x2 = 0.401	799.699 ± 0.49	1126.2 ± 2.2
323.15 K, x2 = 0.499	785.421 ± 0.51	1094.1 ± 2.2
323.15 K, x2 = 0.604	769.917 ± 0.54	1059.9 ± 2.2
323.15 K, x2 = 0.707	754.356 ± 0.56	1024.2 ± 2.2
323.15 K, x2 = 0.8	739.964 ± 0.58	992.41 ± 2.2
323.15 K, x2 = 0.9	723.991 ± 0.61	957.28 ± 2.2
323.15 K, x2 = 0.95	715.742 ± 0.62	940.07 ± 2.2
